{
  "source": "patent US20060069132A1",
  "about": "“Azolecarboxamide herbicides” (priority 2004, published 2006)",
  "key": {"barnyardgrass [1]": {"test_system": "barnyardgrass", "test": "Test B pre-/postemergence herbicide test", "type": "in vivo, Echinochloa crus-galli", "settings": "Echinochloa crus-galli, pre-emergence, 0 = no effect, 100 = complete control", "summary_of_the_method": "(§1)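 Seeds were planted and treated preemergence with compounds formulated in a non-phytotoxic solvent mixture containing surfactant, while plants at the 1- to 4-leaf stage (2 to 18 cm) received postemergence sprays. Flooded paddy plants were grown to the 2-leaf stage. After 13 to 15 days in a greenhouse, injury was visually rated 0–100 against untreated controls.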"}, "Surinam grass": {"test_system": "Surinam grass", "test": "Test B pre-/postemergence herbicide test", "type": "in vivo, Urochloa decumbens", "settings": "Urochloa decumbens; for pest or weed control at 125 g/ha: 125 g ai/ha; for pest or weed control at 500 g/ha: 500 g ai/ha", "summary_of_the_method": "(§2)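 Evaluation is visual, comparing treated with control plants on a scale where 0 means no effect and 100 means full control. Treatments were preemergence, or postemergence on seedlings 2–18 cm tall, and held 13–15 days in the greenhouse.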"}, "cocklebur": {"test_system": "cocklebur", "test": "Test B pre-/postemergence herbicide test", "type": "in vivo, Xanthium strumarium", "settings": "Xanthium strumarium; for pest or weed control at 125 g/ha: 125 g ai/ha; for pest or weed control at 500 g/ha: 500 g ai/ha", "summary_of_the_method": "as §1"}, "corn": {"test_system": "corn", "test": "Test B pre-/postemergence herbicide test", "type": "in vivo, Zea mays", "settings": "Zea mays; for plant injury at 125 g/ha: 125 g ai/ha", "summary_of_the_method": "as §2"}, "large crabgrass": {"test_system": "large crabgrass", "test": "Test B pre-/postemergence herbicide test", "type": "in vivo, Digitaria sanguinalis", "settings": "Digitaria sanguinalis; for pest or weed control at 125 g/ha: 125 g ai/ha; for pest or weed control at 500 g/ha: 500 g ai/ha", "summary_of_the_method": "as §2"}, "giant foxtail": {"test_system": "giant foxtail", "test": "Test B pre-/postemergence herbicide test", "type": "in vivo, Setaria faberi", "settings": "Setaria faberi, 336 h; for pest or weed control at 125 g/ha: 125 g ai/ha; for pest or weed control at 500 g/ha: 500 g ai/ha", "summary_of_the_method": "as §2"}, "pigweed": {"test_system": "pigweed", "test": "Test B pre-/postemergence herbicide test", "type": "in vivo, Amaranthus retroflexus", "settings": "Amaranthus retroflexus, 336 h; for pest or weed control at 125 g/ha: 125 g ai/ha; for pest or weed control at 500 g/ha: 500 g ai/ha", "summary_of_the_method": "as §2"}, "velvetleaf": {"test_system": "velvetleaf", "test": "Test B pre-/postemergence herbicide test", "type": "in vivo, Abutilon theophrasti", "settings": "Abutilon theophrasti, 336 h; for pest or weed control at 125 g/ha: 125 g ai/ha; for pest or weed control at 500 g/ha: 500 g ai/ha", "summary_of_the_method": "as §2"}, "blackgrass": {"test_system": "blackgrass", "test": "Test B postemergence herbicide test", "type": "in vivo, Alopecurus myosuroides", "settings": "Alopecurus myosuroides, post-emergence, 336 h, postemergence, visual rating, scale 0 (no effect) to 100 (complete control), read-out: Blackgrass plant response rating", "summary_of_the_method": "(§3)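 Postemergence plants were sprayed with formulated test chemicals at 2 to 18 cm height (1- to 4-leaf stage); paddy species were grown to the 2-leaf stage. After 13 to 15 days in a greenhouse, injury was rated visually against untreated controls on a 0–100 scale (0 = no effect, 100 = complete control).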"}, "wheat": {"test_system": "wheat", "test": "Test B postemergence herbicide test", "type": "in vivo, Triticum aestivum", "settings": "Triticum aestivum, post-emergence, 336 h, postemergence, visual rating, scale 0 (no effect) to 100 (complete control), read-out: Wheat plant response rating", "summary_of_the_method": "(§4)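 Each value is a visual 0–100 response rating taken against controls 13 to 15 days after treatment in the greenhouse. Plants received formulated chemical postemergence at the 1- to 4-leaf stage or, in flooded paddy, at the 2-leaf stage.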"}, "wild oat": {"test_system": "wild oat", "test": "Test B postemergence herbicide test", "type": "in vivo, Avena fatua", "settings": "Avena fatua, post-emergence, 336 h, postemergence, visual rating, scale 0 (no effect) to 100 (complete control), read-out: Oat, Wild plant response rating", "summary_of_the_method": "as §4"}, "rice": {"test_system": "rice", "test": "Test B flooded paddy test", "type": "in vivo, Oryza sativa", "settings": "Oryza sativa, 336 h, 1000 g ai/ha, scale 0 to 100 (0 no effect, 100 complete control), read-out: Rice plant response rating", "summary_of_the_method": "as §4"}, "[2]": {"test_system": "small flower umbrella sedge", "test": "Test B flooded paddy test", "type": "in vivo, Cyperus difformis", "settings": "Cyperus difformis, 336 h, 1000 g ai/ha, scale 0 to 100 (0 no effect, 100 complete control), read-out: Sedge, Umbrella plant response rating", "summary_of_the_method": "as §3"}, "ducksalad": {"test_system": "ducksalad", "test": "Test B flooded paddy test", "type": "in vivo, Heteranthera limosa", "settings": "Heteranthera limosa, 336 h, 1000 g ai/ha, scale 0 to 100 (0 no effect, 100 complete control), read-out: Ducksalad plant response rating", "summary_of_the_method": "as §3"}, "barnyardgrass [3]": {"test_system": "barnyardgrass", "test": "Test B flooded paddy test", "type": "in vivo, Echinochloa crus-galli", "settings": "Echinochloa crus-galli, 336 h, 1000 g ai/ha, scale 0 to 100 (0 no effect, 100 complete control), read-out: Barnyardgrass plant response rating", "summary_of_the_method": "as §3"}, "[4]": {"settings": "post-emergence, postemergence, visual rating, scale 0 (no effect) to 100 (complete control), read-out: Surinam Grass plant response rating"}, "[5]": {"settings": "post-emergence, postemergence, visual rating, scale 0 (no effect) to 100 (complete control), read-out: Cocklebur plant response rating"}, "[6]": {"settings": "post-emergence, postemergence, visual rating, scale 0 (no effect) to 100 (complete control), read-out: Crabgrass, Large plant response rating"}, "[7]": {"settings": "post-emergence, postemergence, visual rating, scale 0 (no effect) to 100 (complete control), read-out: Foxtail, Giant plant response rating"}, "[8]": {"settings": "post-emergence, postemergence, visual rating, scale 0 (no effect) to 100 (complete control), read-out: Pigweed plant response rating"}, "[9]": {"settings": "post-emergence, postemergence, visual rating, scale 0 (no effect) to 100 (complete control), read-out: Velvetleaf plant response rating"}},
  "note": "Where two headings read alike, the source gives them in different places.",
  "data": [
    {"compound": "CCn1nc(C(C)(C)C)cc1C(=O)Nc1ccc(F)c(C(=O)N(C)C)c1", "note": "[Compound 236, N-[3-[(dimethylamino)carbonyl]-4-fluorophenyl]-3-(1,1-dimethylethyl)-1-ethyl-1H-pyrazole-5-carboxamide]", "values": [
      {"measurement": "pest or weed control at 125 g/ha", "setting": "barnyardgrass [1]; 125 g ai/ha, read-out: Barnyardgrass plant response rating (0 to 100 scale)", "result": 50, "unit": "%"},
      {"measurement": "pest or weed control at 500 g/ha", "setting": "barnyardgrass [1]; 500 g ai/ha, visual rating, read-out: Plant response rating, Barnyardgrass", "result": 90, "unit": "%"},
      {"measurement": "pest or weed control at 125 g/ha", "setting": "Surinam grass; [4]", "result": 0, "unit": "%"},
      {"measurement": "pest or weed control at 500 g/ha", "setting": "Surinam grass; [4]", "result": 20, "unit": "%"},
      {"measurement": "pest or weed control at 125 g/ha", "setting": "Surinam grass; pre-emergence, 0 = no effect, 100 = complete control, read-out: Surinam Grass plant response rating (0 to 100 scale)", "result": 20, "unit": "%"},
      {"measurement": "pest or weed control at 500 g/ha", "setting": "Surinam grass; pre-emergence, visual rating, 0 = no effect, 100 = complete control, read-out: Plant response rating, Surinam Grass", "result": 60, "unit": "%"},
      {"measurement": "pest or weed control at 125 g/ha", "setting": "cocklebur; [5]", "result": 20, "unit": "%"},
      {"measurement": "pest or weed control at 500 g/ha", "setting": "cocklebur; [5]", "result": 40, "unit": "%"},
      {"measurement": "pest or weed control at 125 g/ha", "setting": "cocklebur; pre-emergence, 0 = no effect, 100 = complete control, read-out: Cocklebur plant response rating (0 to 100 scale)", "result": 0, "unit": "%"},
      {"measurement": "pest or weed control at 500 g/ha", "setting": "cocklebur; pre-emergence, visual rating, 0 = no effect, 100 = complete control, read-out: Plant response rating, Cocklebur", "result": 20, "unit": "%"},
      {"measurement": "plant injury at 125 g/ha", "setting": "corn; post-emergence, postemergence, visual rating, scale 0 (no effect) to 100 (complete control), read-out: Corn plant response rating", "result": 20, "unit": "%"},
      {"measurement": "plant injury at 500 g/ha", "setting": "corn; post-emergence, postemergence, 500 g ai/ha, visual rating, scale 0 (no effect) to 100 (complete control), read-out: Corn plant response rating", "result": 40, "unit": "%"},
      {"measurement": "plant injury at 125 g/ha", "setting": "corn; pre-emergence, 0 = no effect, 100 = complete control, read-out: Corn plant response rating (0 to 100 scale)", "result": 0, "unit": "%"},
      {"measurement": "Corn plant response rating (crop injury, 0 = no effect, 100 = complete kill) at 500 g/ha", "setting": "corn; pre-emergence, 500 g ai/ha, visual rating, 0 = no effect, 100 = complete control", "result": 10, "unit": "%"},
      {"measurement": "pest or weed control at 125 g/ha", "setting": "large crabgrass; [6]", "result": 0, "unit": "%"},
      {"measurement": "pest or weed control at 500 g/ha", "setting": "large crabgrass; [6]", "result": 20, "unit": "%"},
      {"measurement": "pest or weed control at 125 g/ha", "setting": "large crabgrass; pre-emergence, 0 = no effect, 100 = complete control, read-out: Crabgrass, Large plant response rating (0 to 100 scale)", "result": 30, "unit": "%"},
      {"measurement": "pest or weed control at 500 g/ha", "setting": "large crabgrass; pre-emergence, visual rating, 0 = no effect, 100 = complete control, read-out: Plant response rating, Crabgrass, Large", "result": 70, "unit": "%"},
      {"measurement": "pest or weed control at 125 g/ha", "setting": "giant foxtail; [7]", "result": 10, "unit": "%"},
      {"measurement": "pest or weed control at 500 g/ha", "setting": "giant foxtail; [7]", "result": 40, "unit": "%"},
      {"measurement": "pest or weed control at 125 g/ha", "setting": "giant foxtail; pre-emergence, 0 = no effect, 100 = complete control, read-out: Foxtail, Giant plant response rating (0 to 100 scale)", "result": 10, "unit": "%"},
      {"measurement": "pest or weed control at 500 g/ha", "setting": "giant foxtail; pre-emergence, visual rating, 0 = no effect, 100 = complete control, read-out: Plant response rating, Foxtail, Giant", "result": 50, "unit": "%"},
      {"measurement": "pest or weed control at 125 g/ha", "setting": "pigweed; [8]", "result": 60, "unit": "%"},
      {"measurement": "pest or weed control at 500 g/ha", "setting": "pigweed; [8]", "result": 70, "unit": "%"},
      {"measurement": "pest or weed control at 125 g/ha", "setting": "pigweed; pre-emergence, 0 = no effect, 100 = complete control, read-out: Pigweed plant response rating (0 to 100 scale)", "result": 30, "unit": "%"},
      {"measurement": "pest or weed control at 500 g/ha", "setting": "pigweed; pre-emergence, visual rating, 0 = no effect, 100 = complete control, read-out: Plant response rating, Pigweed", "result": 90, "unit": "%"},
      {"measurement": "pest or weed control at 125 g/ha", "setting": "velvetleaf; [9]", "result": 20, "unit": "%"},
      {"measurement": "pest or weed control at 500 g/ha", "setting": "velvetleaf; [9]", "result": 50, "unit": "%"},
      {"measurement": "pest or weed control at 125 g/ha", "setting": "velvetleaf; pre-emergence, 0 = no effect, 100 = complete control, read-out: Velvetleaf plant response rating (0 to 100 scale)", "result": 20, "unit": "%"},
      {"measurement": "pest or weed control at 500 g/ha", "setting": "velvetleaf; pre-emergence, visual rating, 0 = no effect, 100 = complete control, read-out: Plant response rating, Velvetleaf", "result": 80, "unit": "%"},
      {"measurement": "pest or weed control at 125 g/ha", "setting": "blackgrass; 125 g ai/ha", "result": 0, "unit": "%"},
      {"measurement": "pest or weed control at 500 g/ha", "setting": "blackgrass; 500 g ai/ha", "result": 10, "unit": "%"},
      {"measurement": "plant injury at 125 g/ha", "setting": "wheat; 125 g ai/ha", "result": 10, "unit": "%"},
      {"measurement": "plant injury at 500 g/ha", "setting": "wheat; 500 g ai/ha", "result": 20, "unit": "%"},
      {"measurement": "pest or weed control at 125 g/ha", "setting": "wild oat; 125 g ai/ha", "result": 20, "unit": "%"},
      {"measurement": "pest or weed control at 500 g/ha", "setting": "wild oat; 500 g ai/ha", "result": 20, "unit": "%"},
      {"measurement": "plant injury at 1000 g/ha", "setting": "rice", "result": 70, "unit": "%"},
      {"measurement": "pest or weed control at 1000 g/ha", "setting": "[2]", "result": 80, "unit": "%"},
      {"measurement": "pest or weed control at 1000 g/ha", "setting": "ducksalad", "result": 90, "unit": "%"},
      {"measurement": "pest or weed control at 1000 g/ha", "setting": "barnyardgrass [3]", "result": 80, "unit": "%"}
    ]}
  ]
}
